{"source": "patent US10052311B2", "about": "“PPAR compounds for use in the treatment of fibrotic diseases” (INVENTIVA, priority 2014, dated 2018)", "test_system": "anti-GBM exposed mice", "experiment": "Anti-GBM induced glomerulonephritis in mice", "assay_type": "in vivo, mouse", "details": "10 mg/kg/day po 7 days, vs vehicle", "data": [{"smiles": "C[C@H](CS)C(=O)N1CCC[C@H]1C(=O)O", "note": "[captopril, reference compound]", "values": [{"measurement": "Col1a expression (kidney)", "value": "had no effect on Col1a expression"}, {"measurement": "Col3a expression (kidney)", "value": "had no effect on Col3a expression"}, {"measurement": "TGFβR-1 expression (kidney)", "value": "had no effect on TGFβ-R1 expression"}, {"measurement": "kidney MCP-1 levels", "value": "significantly reduced MCP-1 levels"}, {"measurement": "kidney osteopontin levels", "value": "significantly reduced osteopontin levels"}, {"measurement": "serum urea levels", "value": "reduced urea level without reaching significance"}, {"measurement": "urinary albumin levels", "value": "reduced albumin levels without reaching significance"}]}]}
